In patent US5670506A, “Halogen, isothiocyanate or azide substituted xanthines” (Cell Therapeutics, Inc., priority 1993, dated 1997):

How the values were obtained:
[1] = test system: TNF release from monocytes in whole blood; assay: ex vivo human TNF model, LPS-mediated TNF release in whole blood; assay type: cell-based; settings: FIG. 14
Method: This model adds LPS to whole blood (normal human volunteers) to trigger a dose-dependent synthesis and extracellular release of TNF according to Desch et al. (Lymphokine Res. 8:141, 1989). The ex vivo model examines whether LPS-mediated release of TNF from monocytes in whole blood can be block by an inventive compound.
An ex vivo human sepsis model is described in Desch et al., Lymphokine Res. 8:141, 1989 and in Ooi et al., J. Exp. Med. 174:649, 1991. Briefly, whole blood from humans is incubated with LPS (endotoxin). TNF released from cells (mostly from monocytes) is measured. The inventive compounds lower TNF levels as compared with untreated controls in this model.
This example illustrates a comparative experiment comparing CT1595, CT1529 and CT2519 in an ex vivo human TNF model described herein. This assay is a predictive model for treatment and prevention of septic shock and sepsis syndrome. This model adds LPS to whole blood (normal human volunteers) to trigger a dose-dependent synthesis and extracellular release of TNF according to Desch et al. (Lymphokine Res. 8:141, 1989). The ex vivo model examines whether LPS-mediated release of TNF from monocytes in whole blood can be block by an inventive compound.

murine splenocytes = assay: inhibition of murine splenocyte proliferation stimulated by anti-mu and IL-4; assay type: cell-based; settings: FIG. 5; anti-mu (10 μg/ml) and IL-4 (12.5 ng/ml)
Method: Drug was added to the cells at the doses indicated two hours prior to activation with anti-mu and IL-4. This in vitro assay is a model for immune suppression and treatment or prevention of autoimmune diseases. […] Background counts were less than 200 cpm.
There are a series of in vitro assays that can be used to measure immunosuppressive activity of a particular compound. These assays are a predictive model for treatment or prevention of autoimmune diseases, such as diabetes, lupus, arthritis, and the like. A first assay measures immunosuppressive activity of a drug at the B cell level. Spleens from adult mice contain immature B cells that express surface IgM. Cross-linking the surface IgM with an anti-mu antibody results in B cell proliferation. Additionally, this activation results in an increased expression of interleukin-4 receptors(IL-4R) on the surface of such cells. IL-4 acts as a growth factor for B cells and will increase the amount of proliferation induced by anti-mu. In the first assay, a mixture of anti-mu and murine IL-4 is added to murine splenocytes to cause their proliferation. Mice spleens are obtained from adult mice and a single cell suspension is prepared in RPMI 1640 medium supplemented with 10% FCS. […] Proliferation is determined on the third day with a pulse of tritiated thymidine. […]

[2] = test system: mixed lymphocyte assay culture (PBMC); assay: percent viable cells in mixed lymphocyte assay culture after six days; assay type: cell-based, human; settings: 100 μM
Method: Control cells that have not been exposed to a drug are generally 78 to 85% viable under such culture conditions. For this graph, all of the compounds were present at 100 μM, which is usually well above their IC50 concentration in this assay (see FIG. 1).

murine thymocytes = assay: inhibition of murine thymocyte proliferation stimulated by ConA and IL-1α; assay type: cell-based, murine (Balb/C mice); settings: FIG. 4, 4 days
Method: The drugs (inventive compounds) were added to the cells at the doses indicated two hours prior to activation with ConA and IL-1α. […] Background counts were less than 200 cpm. This in vitro assay is a model for immune suppression and treatment or prevention of autoimmune diseases.
A third assay measures an ability of an inventive compound to inhibit IL-2-induced proliferation of murine thymocytes. Thymus glands are obtained from 4-6 week old mice and plated as a single cell suspension into flat bottomed wells in RPMI 1640 medium supplemented with 10% fetal calf serum. The inventive compounds are added to appropriate wells and the cells are incubated for 1-2 hrs. Concanavilin A (ConA, 0.25 μg/ml) and IL-1 (20 ng/ml) are added and the plates are incubated for 4 days. Cell proliferation is determined as above. There are also variations for this assay that follow the same basic stimulation and measure inhibition of proliferation format. […]
This example illustrates the effect of CT1514, CT1525, CT1527, CT1529, CT1577, CT1583, CT1589, CT1595, CT2519, CT1205, CT1801 and CT1908 on inhibition of murine thymocyte proliferation stimulated by Concanavalin A (ConA) and interleukin-2 (IL-2) (FIG. 4). […] The cells were harvested and incorporated tritiated thymidine was determined in a liquid scintillation counter. […]

human stromal cells = assay: inhibition of proliferation of human stromal cells stimulated with PDGF; assay type: cell-based
Method: This assay is a model for restenosis and treatment of atherosclerosis and coronary artery disease. Stromal cells were starved in serum-free media for one day and then stimulated with 50 ng/ml PDGF-BB. The drags were added at the indicated concentrations one hour prior to PDGF stimulation. Tritiated thymidine was added for one day at the time of PDGF stimulation and the cells were harvested and counted by liquid scintillation counting 24 hrs later. Background counts (i.e., starved cells) were approximately 1% of control levels.
Another assay for measuring activity of the inventive compounds involves determining PDGF (platelet derived growth factor) proliferative response using human-derived stromal cells. Human stromal cells are plated (e.g., about 2000 cells per well) in defined media (e.g., 69% McCoy's, 12.5% fetal calf serum, 12.5% horse serum, 1% antibiotics, 1% glutamine, 1% vitamin supplement, 0.8% essential amino acids, 1% sodium pyruvate, 1% sodium bicarbonate, 0.4% non-essential amino acids and 0.36% hydrocortisone). Two to three days later, the stromal cells are starved in serum-free media. Twenty four hours later, the cells are treated with a stimulating agent, such as PDGF-AA, PDGF-BB or basic FGF (fibroblast growth factor) with or without IL-1α or TNF, and tritiated thymidine. Cell proliferation is determined by liquid scintillation counting.
This assay is a model for restenosis and treatment of atherosclerosis and coronary artery disease. Stromal cells were starved in serum-free media for one day and then stimulated with 50 ng/ml PDGF-BB. The drugs were added at the indicated concentrations one hour prior to PDGF stimulation. Tritiated thymidine was added for one day at the time of PDGF stimulation and the cells were harvested and counted by liquid scintillation counting 24 hrs later. Background counts (i.e., starved cells) were approximately 1% of control levels.

[3] = test system: CMV promoter activity in transformed (adenovirus) cells; assay: CMV promoter assay (gene transcription and translation, cytotoxic activity); assay type: cell-based
Source text: This example illustrates data regarding proliferative activity of various inventive compounds for inducting CMV promoter activity. The CMV promoter assay measures gene transcription and translation activity wherein any active compounds will nave cytotoxic activity to inhibit cellular protein synthesis machinery in transformed (adenovirus) cells.

[4] = test system: polymorphonuclear leukocytes; settings: in response to a stimulator of chemotaxis; U.S. Pat. No. 4,636,507; cited from earlier work
PAPH = PAPH blockade in a specific activation pathway; assay type: cell-based, human; settings: specific activation pathway that does not involve PI
Source text: The compounds and pharmaceutical compositions of the invention include inhibitors of subspecies of LPAAT and PAPH enzymes with substrate specificity for intermediates with 1,2-diunsaturated and 1-alkyl, 2-unsaturated subspecies. One representative example of such an inhibitor (although not within the genus of inventive compounds) is PTX. […] It should be emphasized that the compounds of the invention affect that subset of PAPH and LPAAT that relates to substrates with unsaturated fatty acids other than arachidonate in the sn-2 position, not the housekeeping forms of these enzymes that serve the PI pathway.

[5] = test system: ras-transformed NIH/3T3 cells
TNF = settings: human, in vivo; cited from earlier work
[6] = test system: ras-transformed NIH/3T3 cells; assay: serum-stimulated generation of DAG and PA in ras-transformed NIH/3T3 cells; assay type: cell-based; settings: pretreatment of cells
Source text: For example, activating ras mutations result in increased generation of DAG on stimulation with mitogens, although the sources of DAG have differed between experimental systems. In nontransformed renal mesangial cells, IL-1β stimulation increased PLA2 and LPAAT activation, resulting in generation of sn-2 unsaturated PA and subsequent hydrolysis to DAG by phosphatidate phosphohydrolase. The ras transformation in NIH/3T3 cells upregulates serum-stimulated generation of DAG and PA. The specific species of DAG that is stimulated by serum is dioleoyl and for PA are dilinoleoyl and dioleoyl. […] The inhibition occurs either through suppressing the generation of PA de novo from lysoPA, or through inhibition of one or both arms of the Lands cycle. […] Therefore, the ras transformation mediates an upregulation of PA through indirect stimulation of PLA2 and/or LPAAT activity.

LPAAT = assay: formation of remodeled PA (LPAAT), in vitro; assay type: cell-based; settings: high PTX concentrations
Source text: Even in the presence of PTX, cells continue to form PA through the action of PLD, and DAG is also formed through the action of phospholipase C on PC and PI. The latter pathway are not inhibited by the inventive compounds or PTX. In PTX-treated cells, DAG derived from remodeled and PLA-generated PA is diminished (e.g., 1,2-sn-dioleoyl DAG, 1-alkyl,2-linoleoyl DAG and 1-alkyl,2-docosahexaneolyl DAG). Therefore, the inventive compounds and PTX inhibit the formation of only a certain species of PA and DAG by selectively inhibiting a specific second messenger pathway that is only activated in cells by noxious stimuli, but is not used to signal normal cellular housekeeping functions.

[7] = U.S. Pat. Nos. 4,515,795 and 4,576,947; cited from earlier work

CC(CCCCn1c(=O)c2c(ncn2C)n(C)c1=O)N=C=S (centres unmarked) [CT2519, 1-(5-isothiocyanatohexyl)-3,7-dimethylxanthine]
block of LPS-mediated TNF release [1]: could block TNF release in a dose-dependent fashion
inhibition of splenocyte proliferation (murine splenocytes): most potent inhibitors of splenocyte proliferation in a dose-response manner
viability in MLR culture [2]: not cytotoxic at 100 μM
inhibition of thymocyte proliferation (murine thymocytes): most potent drugs
inhibition of human stromal cell proliferation (human stromal cells; FIG. 7, 50 ng/ml PDGF-BB, in words): strongly inhibit proliferation
IC50 (human stromal cells; Homo sapiens, read-out: IC50, inhibition of human stromal cell proliferation): < 10 µM
cytotoxicity in CMV promoter assay ([3]; in words): most cytotoxic compound tested
IC50 ([3]; read-out: IC50 (μM), CMV promoter assay): 10 µM

CC(=O)CCCCn1c(=O)c2c(ncn2C)n(C)c1=O [PTX, 1-(5-oxohexyl)-3,7-dimethylxanthine]
stimulation of chemotaxis in polymorphonuclear leukocytes [4]: stimulate chemotaxis
PAPH block (PAPH): blocks PAPH
cytotoxicity associated with inhibition of ras-transformed cells [5]: not associated with significant cytotoxicity
inhibition of ras-transformed NIH/3T3 cells ([5]; vs parental cells): inhibits ras-transformed NIH/3T3 cells more than parental cells
TNF levels in normal volunteers (TNF): TNF levels were higher among PTX recipients
generation of phospholipid second messengers (DAG, PA) [6]: blocks generation of these phospholipid second messengers
formation of remodeled PA (LPAAT): blocks formation of remodeled PA

CC(O)CCCCn1c(=O)c2c(ncn2C)n(C)c1=O (centres unmarked) [M1, 1-(5-hydroxyhexyl)-3,7-dimethylxanthine]
stimulation of chemotaxis in polymorphonuclear leukocytes [4]: stimulate chemotaxis
cerebral blood flow [7]: increasing cerebral blood flow
